Results on twelve molecules are retold here after patent US20240116985A1, “STAPLED PEPTIDES AND METHODS THEREOF” (priority 2020, published 2024).

pIC50: −log10 of the molar value. Converted amounts (≈) assume the structure as drawn. Like-named read-outs stand apart in the source and are kept apart here. Where only a bound is given, the exact number is not on record here.

The nature of one series: Solubility in PBS. Type of series: physicochemical. Here is the method:
After ultracentrifugation of the PBS solution, the supernatant was analyzed by HPLC and compared to an HPLC injection 50 μM peptide DMSO solution. Solubility was determined by: [(Area of PBS peak)/(Area of DMSO peak)]*50 uM.

The target of series [1] is T1, full-length beta-Catenin (Uniprot ID P35222) (Homo sapiens, UniProt P35222).
T1 construct: 10 nM full-length beta-Catenin (Uniprot ID P35222)
T1 sequence (P35222 1-781): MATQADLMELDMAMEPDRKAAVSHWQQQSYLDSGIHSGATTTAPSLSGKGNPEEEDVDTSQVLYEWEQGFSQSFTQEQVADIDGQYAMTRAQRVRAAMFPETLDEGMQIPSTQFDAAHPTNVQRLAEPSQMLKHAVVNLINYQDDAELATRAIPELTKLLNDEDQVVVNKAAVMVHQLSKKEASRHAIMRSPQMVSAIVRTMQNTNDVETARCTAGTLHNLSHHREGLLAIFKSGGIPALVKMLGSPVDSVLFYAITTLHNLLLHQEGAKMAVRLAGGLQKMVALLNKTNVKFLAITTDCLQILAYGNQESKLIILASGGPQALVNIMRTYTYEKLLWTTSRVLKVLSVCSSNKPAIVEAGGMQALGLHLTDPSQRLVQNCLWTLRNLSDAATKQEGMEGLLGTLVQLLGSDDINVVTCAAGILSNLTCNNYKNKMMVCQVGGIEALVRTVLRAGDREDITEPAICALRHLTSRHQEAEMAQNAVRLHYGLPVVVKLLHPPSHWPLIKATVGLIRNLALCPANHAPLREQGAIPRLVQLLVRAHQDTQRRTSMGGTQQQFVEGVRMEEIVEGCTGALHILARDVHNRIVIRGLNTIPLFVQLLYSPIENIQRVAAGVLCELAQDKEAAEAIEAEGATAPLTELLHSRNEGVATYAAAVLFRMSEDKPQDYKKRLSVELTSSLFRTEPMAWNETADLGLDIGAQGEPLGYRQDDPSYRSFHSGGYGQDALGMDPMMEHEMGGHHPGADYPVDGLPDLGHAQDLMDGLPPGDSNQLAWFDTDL
As to the kind of experiment: Fluorescence polarization IC50 (beta-catenin / 5FAM-TCF4 10-53 competition). Type of series: binding.

The next series can be described thus: CHI Log D procedure. To be noted: for chromatographic logD: pH 7.4, CHI Log D. Type of series: physicochemical.
Series [2] addresses T2, beta-catenin/TCF4 engagement (Homo sapiens, UniProt P35222).
T2 construct: expressed in transfected cells; host or cells: HEK293
T2 sequence (P35222 1-781): T1 sequence (P35222 1-781)
Description: Nano-BRET target engagement assay (B-cat-Halo & TCF4-Luc in HEK293 cells). Type of series: cell-based. To be noted: read-out: NanoBRET Abs IC50. For orientation: BRET reads energy transfer from a luciferase to a nearby fluorophore.

Where [3] appears, read: fluorescence polarization, beta-catenin, read-out: FP EC50.

A word on the Solubility: it is the dissolved amount per volume that the medium holds. For `CC(=O)N1CCC[C@]12CC=CCCCC1(CCCC=CCCCOC(=O)N3CC[C@@](C(=O)N[C@@H](Cc4ccccc4)C(=O)N[C@@H](Cc4csc5ccccc45)C(=O)N[C@@H](CCC(N)=O)C(N)=O)(C3)NC(=O)[C@H](CC(C)C)NC(=O)[C@H](Cc3ccccc3)NC(=O)[C@H](C)NC(=O)[C@H](C)NC(=O)[C@H]([C@@H](C)O)NC(=O)[C@H](CC(=O)O)NC1=O)NC(=O)[C@H](CC(C)(C)C)NC(=O)[C@H](CC(N)=O)NC2=O` (single isomer, unassigned) [I-1284, Ac-PL3-Asn-Npg-B5-Asp-Thr-Ala-Ala-Phe-Leu-PyrS2-Phe-BztA-Gln-NH2], the “Solubility” value in “Solubility in PBS” was 10 µM (≈ 19 µg/mL).
On the same count and under the same terms, to `CC(=O)N1CCC[C@]12CC=CCCCC1(CCCC=CCCCOC(=O)N3CC[C@@](C(=O)N[C@@H](Cc4ccccc4)C(=O)N[C@@H](Cc4csc5ccccc45)C(=O)N[C@@H](CCC(N)=O)C(N)=O)(C3)NC(=O)[C@H](CC(C)C)NC(=O)[C@H](Cc3ccccc3)NC(=O)[C@H](C)NC(=O)[C@H](C)NC(=O)[C@H]([C@@H](C)O)NC(=O)[C@H](CC(=O)O)NC1=O)NC(=O)[C@H](CC(C)(C)C)NC(=O)[C@H](CC(N)=O)NC2=O` (single isomer, unassigned) [I-1285, Ac-PL3-Asn-Npg-B5-Asp-Thr-Ala-Ala-Phe-Leu-PyrS2-Phe-BztA-Gln-NH2] belongs 10 µM (≈ 19 µg/mL); to `CC(=O)N1CCC[C@]12CC=CCCCC1(CCCC=CCCCOC(=O)N3CC[C@@](C(=O)N[C@@H](Cc4ccccc4)C(=O)N[C@@H](Cc4csc5ccccc45)C(=O)N[C@@H](CCC(N)=O)C(N)=O)(C3)NC(=O)[C@H](CC(C)C)NC(=O)[C@H](Cc3ccccc3)NC(=O)[C@H](C)NC(=O)[C@H](C)NC(=O)[C@H]([C@@H](C)O)NC(=O)[C@H](CC(=O)O)NC1=O)NC(=O)[C@H](C)NC(=O)[C@H](CC(N)=O)NC2=O` (single isomer, unassigned) [I-1286, Ac-PL3-Asn-Ala-B5-Asp-Thr-Ala-Ala-Phe-Leu-PyrS2-Phe-BztA-Gln-NH2], 10 µM (≈ 18.4 µg/mL).
On the same count and under the same terms, to `CC(=O)N1CCC[C@]12CC=CCCCC1(CCCC=CCCCOC(=O)N3CC[C@@](C(=O)N[C@@H](Cc4ccccc4)C(=O)N[C@@H](Cc4csc5ccccc45)C(=O)N[C@@H](CCC(N)=O)C(N)=O)(C3)NC(=O)[C@H](CC(C)C)NC(=O)[C@H](Cc3ccccc3)NC(=O)[C@H](C)NC(=O)[C@H](C)NC(=O)[C@H]([C@@H](C)O)NC(=O)[C@H](CC(=O)O)NC1=O)NC(=O)[C@H](C)NC(=O)[C@H](CC(N)=O)NC2=O` (single isomer, unassigned) [I-1287, Ac-PL3-Asn-Ala-B5-Asp-Thr-Ala-Ala-Phe-Leu-PyrS2-Phe-BztA-Gln-NH2] belongs 10 µM (≈ 18.4 µg/mL); to `CC(=O)N1CCC[C@]12CC=CCCCC1(CCCC=CCCCOC(=O)N3CC[C@@](C(=O)N[C@@H](Cc4ccccc4)C(=O)N[C@@H](Cc4csc5ccccc45)C(=O)N[C@@H](CCC(N)=O)C(N)=O)(C3)NC(=O)[C@H](CC(C)C)NC(=O)[C@H](Cc3ccccc3)NC(=O)[C@H](C)NC(=O)[C@H](CCCCNC(C)C)NC(=O)[C@H]([C@@H](C)O)NC(=O)[C@H](CC(=O)O)NC1=O)NC(=O)[C@H](CC(C)(C)C)NC(=O)[C@H](CC(N)=O)NC2=O` (single isomer, unassigned) [I-1289, Ac-PL3-Asn-Npg-B5-Asp-Thr-iPrLys-Ala-Phe-Leu-PyrS2-Phe-BztA-Gln-NH2], 10 µM (≈ 20 µg/mL); to `CC(=O)N1CCC[C@]12CC=CCCCC1(CCCC=CCCCOC(=O)N3CC[C@@](C(=O)N[C@@H](Cc4ccccc4)C(=O)N[C@@H](Cc4ccc5ccccc5c4)C(=O)N[C@@H](CCC(N)=O)C(N)=O)(C3)NC(=O)[C@H](CC(C)C)NC(=O)[C@H](Cc3ccccc3)NC(=O)[C@H](C)NC(=O)[C@H](C)NC(=O)[C@H]([C@@H](C)O)NC(=O)[C@H](CC(=O)O)NC1=O)NC(=O)[C@H](CC(C)(C)C)NC(=O)[C@H](CC(N)=O)NC2=O` (single isomer, unassigned) [I-1291, Ac-PL3-Asn-Npg-B5-Asp-Thr-Ala-Ala-Phe-Leu-PyrS2-Phe-2NapA-Gln-NH2], 10 µM (≈ 18.9 µg/mL).
Still for that read-out and setting: the figure for `CC(=O)N1CCC[C@]12CC=CCCCC1(CCCC=CCCCOC(=O)N3CC[C@@](C(=O)N[C@@H](Cc4ccccc4)C(=O)N[C@@H](Cc4ccc5ccccc5c4)C(=O)N[C@@H](CCC(N)=O)C(N)=O)(C3)NC(=O)[C@H](CC(C)C)NC(=O)[C@H](Cc3ccccc3)NC(=O)[C@H](C)NC(=O)[C@H](C)NC(=O)[C@H]([C@@H](C)O)NC(=O)[C@H](CC(=O)O)NC1=O)NC(=O)[C@H](CC(C)(C)C)NC(=O)[C@H](CC(N)=O)NC2=O` (single isomer, unassigned) [I-1292, Ac-PL3-Asn-Npg-B5-Asp-Thr-Ala-Ala-Phe-Leu-PyrS2-Phe-2NapA-Gln-NH2] is 10 µM (≈ 18.9 µg/mL).
For orientation: chromatographic logD means a lipophilicity value derived from retention on a column. A low value points to lower lipophilicity. For the molecule `CC(=O)N1CCC[C@]12CC=CCCCC1(CCCC=CCCCOC(=O)N3CC[C@@](C(=O)N[C@@H](Cc4ccccc4Cl)C(=O)N[C@@H](Cc4csc5ccccc45)C(=O)N[C@@H](C(N)=O)[C@H](C)O)(C3)NC(=O)[C@H](CO)NC(=O)[C@H](Cc3ccccc3)NC(=O)[C@H](C)NC(=O)[C@H](C)NC(=O)[C@H](CCC(=O)O)NC(=O)[C@H](CC(=O)O)NC1=O)NC(=O)[C@H](CC(C)(C)C)NC(=O)[C@H](CC(=O)O)NC2=O` (stereo partly drawn) [I-1036, Ac-PL3-Asp-Npg-B5-Asp-Glu-Ala-Ala-Phe-Ser-PyrS2-2C1F-BztA-dThr-NH2], the pIC50 in series [1] (read-out: beta-Catenin FP IC50) was 7.54; in series [2], 4.78. The chromatographic logD in “CHI Log D procedure” was 2.46.
The corresponding values for `CC(=O)N1CCC[C@]12CC=CCCCC1(CCCC=CCCCOC(=O)N3CC[C@@](C(=O)N[C@@H](Cc4ccccc4Cl)C(=O)N[C@@H](Cc4csc5ccccc45)C(=O)N[C@@H](C(N)=O)[C@H](C)O)(C3)NC(=O)[C@H]([C@@H](C)O)NC(=O)[C@H](Cc3ccccc3)NC(=O)[C@H](C)NC(=O)[C@H](C)NC(=O)[C@H](CCC(=O)O)NC(=O)[C@H](CC(=O)O)NC1=O)NC(=O)[C@H](CC(C)(C)C)NC(=O)[C@H](CC(=O)O)NC2=O` (stereo partly drawn) [I-1037, Ac-PL3-Asp-Npg-B5-Asp-Glu-Ala-Ala-Phe-Thr-PyrS2-2C1F-BztA-dThr-NH2] are 7.52, 5.36 and 2.52.
With `CC(=O)N1CCC[C@]12CC=CCCCC1(CCCC=CCCCOC(=O)N3CC[C@@](C(=O)N[C@@H](Cc4ccccc4Cl)C(=O)N[C@@H](Cc4csc5ccccc45)C(=O)N[C@@H](CCC(N)=O)C(N)=O)(C3)NC(=O)[C@H](CC(C)C)NC(=O)[C@H](Cc3ccccc3)NC(=O)[C@H](C)NC(=O)[C@H](C)NC(=O)[C@H](CC(=O)O)NC(=O)[C@H](CC(=O)O)NC1=O)NC(=O)[C@H](CC(C)(C)C)NC(=O)[C@H](CC(=O)O)NC2=O` (stereo partly drawn) [I-1062, Ac-PL3-Asp-Npg-B5-Asp-Asp-Ala-Ala-Phe-Leu-PyrS2-2C1F-BztA-Gln-NH2], the pIC50 is 6.41 in series [1] (setting [3]), 7.96 in series [1] (read-out: beta-Catenin FP IC50) and 5.33 in series [2]. Also, the chromatographic logD in the series “CHI Log D procedure” stood at 1.9.
For `CC(=O)N1CCC[C@]12CC=CCCCC1(CCCC=CCCCCCC[C@@](C)(C(=O)N[C@@H](Cc3ccccc3Cl)C(=O)N[C@@H](Cc3csc4ccccc34)C(=O)N[C@@H](CCC(N)=O)C(N)=O)NC(=O)[C@H]([C@@H](C)O)NC(=O)[C@H](Cc3ccccc3)NC(=O)[C@H](C)NC(=O)[C@H](C)NC(=O)[C@H](CC(=O)O)NC(=O)[C@H](CC(=O)O)NC1=O)NC(=O)[C@H](CC(C)(C)C)NC(=O)[C@H](CC(=O)O)NC2=O` (stereo partly drawn) [I-1086, Ac-PL3-Asp-Npg-B5-Asp-Asp-Ala-Ala-Phe-Thr-S8-2C1F-BztA-Gln-NH2], the results for the pIC50 in series [1] (setting [3]), in series [1] (read-out: beta-Catenin FP IC50) and in series [2] were 7.92, 7.92 and 5.00, respectively. Besides, the “CHI Log D” value in “CHI Log D procedure” (pH 7.4) turned out to be 2.709.
Turning to `CC(=O)N1CCC[C@]12CC=CCCCC1(CCCC=CCCCOC(=O)N3CC[C@@](C(=O)N[C@@H](Cc4ccsc4)C(=O)N[C@@H](Cc4csc5ccccc45)C(=O)N[C@@H](CCC(N)=O)C(N)=O)(C3)NC(=O)[C@H](CC(N)=O)NC(=O)[C@H](Cc3ccccc3)NC(=O)[C@H](C)NC(=O)[C@H](C)NC(=O)[C@H](CN(CC(=O)O)CC(F)(F)F)NC(=O)[C@H](CC(=O)O)NC1=O)NC(=O)[C@H](CC(C)(C)C)NC(=O)C[C@H](CC(=O)O)NC2=O` (stereo partly drawn) [I-1161, Ac-PL3-RbGlu-Npg-B5-Asp-TfeGA-Ala-Ala-Phe-Asn-PyrS2-3Thi-BztA-Gln-NH2], the pIC50 in series [1] (fluorescence polarization, read-out: beta-Catenin FP IC50) was 7.62; in series [2] (absolute IC50), less than 4.70. This molecule yielded a chromatographic logD in the series “CHI Log D procedure” of 2.08.
